This note sets out measurements from PMC8213057, “Targeting ALK2: An Open Science Approach to Developing Therapeutics for the Treatment of Diffuse Intrinsic Pontine Glioma” (Journal of Medicinal Chemistry, 2020).

Molecules are shown by their SMILES. Values joined by “and” are separate entries in the source; they are usually repeats but may differ in a detail not shown here. Equal entries are not always repeated.

Data set [1] addresses CLK3 (Homo sapiens, UniProt P49761). Briefly: biochemical. The note with it: read-out: % enzyme activity, 1 μM; Run 1, Run 2.
Data set [2] deals with CDK2/cyclin A (Homo sapiens, UniProt P24941). Briefly: biochemical. As to conditions: read-out: % enzyme activity, 1 μM; Run 1, Run 2.
Data set [3] addresses CSK (Homo sapiens, UniProt P41240). Description: biochemical. The note with it: read-out: % enzyme activity, 1 μM; Run 1, Run 2.
Data set [4] deals with YES/YES1 (Homo sapiens, UniProt P07947). Description: biochemical. As to conditions: read-out: % enzyme activity, 1 μM; Run 1, Run 2.
Data set [5] addresses RET (Homo sapiens, UniProt P07949). Description: biochemical. As to conditions: read-out: % enzyme activity, 1 μM; Run 1, Run 2.
Data set [6] deals with CDK18/cyclin Y (PCTK3) (Homo sapiens, UniProt Q07002). The note with it: 1 μM; Run 1, Run 2.
The target of data set [7] is T1, TNIK (Homo sapiens, UniProt Q9UKE5).
T1 construct: purchased Reaction Biology Corporation
Briefly: 375-member kinase panel. The class given is biochemical. As to conditions: Run 1, Run 2; for % enzyme activity: 1 μM.

Data set [8] addresses MEK2 (Homo sapiens, UniProt P36507). Briefly: biochemical. The note with it: read-out: % enzyme activity, 1 μM; Run 1, Run 2.
For data set [9], the target named is T2, BMPR2 (Homo sapiens, UniProt Q13873).
T2 construct: purchased Reaction Biology Corporation
T2 sequence (Q13873 27-1038): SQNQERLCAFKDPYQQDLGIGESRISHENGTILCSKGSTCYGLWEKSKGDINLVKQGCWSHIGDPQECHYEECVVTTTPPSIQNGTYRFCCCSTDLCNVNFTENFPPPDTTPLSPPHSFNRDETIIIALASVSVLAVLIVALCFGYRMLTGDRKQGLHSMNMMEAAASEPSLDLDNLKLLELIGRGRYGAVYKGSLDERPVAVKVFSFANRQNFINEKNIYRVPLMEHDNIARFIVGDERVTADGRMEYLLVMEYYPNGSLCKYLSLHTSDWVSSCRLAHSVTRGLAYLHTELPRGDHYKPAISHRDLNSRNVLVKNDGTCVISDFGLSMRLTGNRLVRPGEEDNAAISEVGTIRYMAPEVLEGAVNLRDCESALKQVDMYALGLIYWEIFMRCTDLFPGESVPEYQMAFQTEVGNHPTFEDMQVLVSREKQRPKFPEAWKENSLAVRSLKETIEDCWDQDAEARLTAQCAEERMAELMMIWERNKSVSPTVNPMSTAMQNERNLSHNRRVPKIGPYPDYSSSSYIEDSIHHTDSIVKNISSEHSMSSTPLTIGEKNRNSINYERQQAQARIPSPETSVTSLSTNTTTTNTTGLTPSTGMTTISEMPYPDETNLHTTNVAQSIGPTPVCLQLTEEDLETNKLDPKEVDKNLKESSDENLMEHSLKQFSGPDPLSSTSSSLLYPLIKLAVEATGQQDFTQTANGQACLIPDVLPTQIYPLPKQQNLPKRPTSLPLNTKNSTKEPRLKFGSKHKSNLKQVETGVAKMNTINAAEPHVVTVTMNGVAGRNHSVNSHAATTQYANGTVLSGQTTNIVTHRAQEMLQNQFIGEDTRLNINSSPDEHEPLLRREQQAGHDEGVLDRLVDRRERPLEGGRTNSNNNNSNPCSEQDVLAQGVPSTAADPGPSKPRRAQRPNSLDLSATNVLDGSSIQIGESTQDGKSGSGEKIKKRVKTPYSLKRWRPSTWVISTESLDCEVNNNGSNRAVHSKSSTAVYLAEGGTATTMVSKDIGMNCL
Description: 375-member kinase panel. As to conditions: Run 1, Run 2; for % enzyme activity: 1 μM; for remaining activity at 1 µM: read-out: % enzyme activity, 1 μM. The class given is biochemical.

The target of data set [10] is STK32C/YANK3 (Homo sapiens, UniProt Q86UX6). Briefly: biochemical. The note with it: read-out: % enzyme activity, 1 μM; Run 1, Run 2.
In data set [11] the target is T3, BMX/ETK (Homo sapiens, UniProt P51813).
T3 sequence (P51813 1-675): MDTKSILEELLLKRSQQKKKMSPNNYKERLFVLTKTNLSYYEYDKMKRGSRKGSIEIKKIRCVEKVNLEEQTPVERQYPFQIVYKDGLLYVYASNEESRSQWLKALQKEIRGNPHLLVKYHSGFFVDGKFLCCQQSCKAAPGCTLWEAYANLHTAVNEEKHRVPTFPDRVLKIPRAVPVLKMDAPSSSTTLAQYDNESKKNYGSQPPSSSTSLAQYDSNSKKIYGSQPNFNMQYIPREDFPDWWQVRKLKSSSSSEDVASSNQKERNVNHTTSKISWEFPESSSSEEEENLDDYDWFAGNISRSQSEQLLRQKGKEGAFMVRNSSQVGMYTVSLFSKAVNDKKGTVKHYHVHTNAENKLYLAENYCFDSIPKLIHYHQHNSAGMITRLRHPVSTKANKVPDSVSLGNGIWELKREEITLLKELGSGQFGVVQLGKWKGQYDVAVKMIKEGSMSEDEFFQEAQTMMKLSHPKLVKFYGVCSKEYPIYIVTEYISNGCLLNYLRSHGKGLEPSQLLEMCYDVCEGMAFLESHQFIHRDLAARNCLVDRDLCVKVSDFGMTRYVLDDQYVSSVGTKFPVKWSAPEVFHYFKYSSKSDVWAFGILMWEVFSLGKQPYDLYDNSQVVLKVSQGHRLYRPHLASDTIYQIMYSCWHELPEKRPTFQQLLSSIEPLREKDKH
The note with it: 1 μM; Run 1, Run 2.

The nature of data set [12]: human liver microsomal stability assay. The class given is in vitro ADME. As to conditions: human, microsomes, pH 7.4, human liver microsomes, 60 min, 37 °C, read-out: HLM % Remaining at 1h.
Data set [13] has as its target T4, ALK6/BMPR1B (Homo sapiens, UniProt O00238).
T4 construct: purchased Reaction Biology Corporation
Description: 375-member kinase panel. The class given is biochemical. The note with it: Run 1, Run 2; for % enzyme activity: 1 μM; for remaining activity at 1 µM: read-out: % enzyme activity, 1 μM.

Data set [14] deals with SRPK1 (Homo sapiens, UniProt Q96SB4). As to conditions: 1 μM; Run 1, Run 2.
The target of data set [15] is CAMK1a (Homo sapiens, UniProt Q14012). Briefly: biochemical. As to conditions: read-out: % enzyme activity, 1 μM; Run 1, Run 2.
The target in data set [16] is MARK2/PAR-1Ba (Homo sapiens, UniProt Q7KZI7). The note with it: 1 μM; Run 1, Run 2.
For data set [17], the target named is JAK1 (Homo sapiens, UniProt P23458). The note with it: 1 μM; Run 1, Run 2.
Chain of JAK1 (P23458 whole entry): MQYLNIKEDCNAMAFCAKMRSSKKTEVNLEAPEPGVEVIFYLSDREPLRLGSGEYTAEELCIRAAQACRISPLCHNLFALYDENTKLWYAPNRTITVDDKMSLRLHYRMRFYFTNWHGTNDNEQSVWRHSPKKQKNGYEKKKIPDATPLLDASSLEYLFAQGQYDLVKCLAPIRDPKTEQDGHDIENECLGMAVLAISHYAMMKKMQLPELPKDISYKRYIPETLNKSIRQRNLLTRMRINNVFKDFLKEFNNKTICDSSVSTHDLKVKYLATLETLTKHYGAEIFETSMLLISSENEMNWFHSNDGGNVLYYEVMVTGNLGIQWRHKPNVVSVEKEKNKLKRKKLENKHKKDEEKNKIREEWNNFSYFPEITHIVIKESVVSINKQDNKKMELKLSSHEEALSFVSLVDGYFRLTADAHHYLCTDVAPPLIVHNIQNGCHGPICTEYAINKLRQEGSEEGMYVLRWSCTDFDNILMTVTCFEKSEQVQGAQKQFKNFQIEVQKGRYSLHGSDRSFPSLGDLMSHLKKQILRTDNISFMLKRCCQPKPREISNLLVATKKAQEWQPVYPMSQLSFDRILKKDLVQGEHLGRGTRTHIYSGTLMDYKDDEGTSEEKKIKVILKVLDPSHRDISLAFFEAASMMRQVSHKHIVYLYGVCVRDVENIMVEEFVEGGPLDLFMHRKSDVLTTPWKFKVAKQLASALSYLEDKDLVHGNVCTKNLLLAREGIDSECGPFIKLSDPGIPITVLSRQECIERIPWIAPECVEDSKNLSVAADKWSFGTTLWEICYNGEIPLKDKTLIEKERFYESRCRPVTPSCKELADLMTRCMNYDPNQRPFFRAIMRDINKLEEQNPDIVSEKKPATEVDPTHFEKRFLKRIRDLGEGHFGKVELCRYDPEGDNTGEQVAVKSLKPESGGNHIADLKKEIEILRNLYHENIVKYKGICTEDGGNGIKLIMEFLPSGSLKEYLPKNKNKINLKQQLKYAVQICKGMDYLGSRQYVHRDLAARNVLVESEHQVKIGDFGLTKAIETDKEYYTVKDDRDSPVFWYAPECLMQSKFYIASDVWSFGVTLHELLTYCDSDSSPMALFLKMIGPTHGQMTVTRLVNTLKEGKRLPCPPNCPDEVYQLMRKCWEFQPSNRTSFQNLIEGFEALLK

T1 sequence (Q9UKE5 whole entry): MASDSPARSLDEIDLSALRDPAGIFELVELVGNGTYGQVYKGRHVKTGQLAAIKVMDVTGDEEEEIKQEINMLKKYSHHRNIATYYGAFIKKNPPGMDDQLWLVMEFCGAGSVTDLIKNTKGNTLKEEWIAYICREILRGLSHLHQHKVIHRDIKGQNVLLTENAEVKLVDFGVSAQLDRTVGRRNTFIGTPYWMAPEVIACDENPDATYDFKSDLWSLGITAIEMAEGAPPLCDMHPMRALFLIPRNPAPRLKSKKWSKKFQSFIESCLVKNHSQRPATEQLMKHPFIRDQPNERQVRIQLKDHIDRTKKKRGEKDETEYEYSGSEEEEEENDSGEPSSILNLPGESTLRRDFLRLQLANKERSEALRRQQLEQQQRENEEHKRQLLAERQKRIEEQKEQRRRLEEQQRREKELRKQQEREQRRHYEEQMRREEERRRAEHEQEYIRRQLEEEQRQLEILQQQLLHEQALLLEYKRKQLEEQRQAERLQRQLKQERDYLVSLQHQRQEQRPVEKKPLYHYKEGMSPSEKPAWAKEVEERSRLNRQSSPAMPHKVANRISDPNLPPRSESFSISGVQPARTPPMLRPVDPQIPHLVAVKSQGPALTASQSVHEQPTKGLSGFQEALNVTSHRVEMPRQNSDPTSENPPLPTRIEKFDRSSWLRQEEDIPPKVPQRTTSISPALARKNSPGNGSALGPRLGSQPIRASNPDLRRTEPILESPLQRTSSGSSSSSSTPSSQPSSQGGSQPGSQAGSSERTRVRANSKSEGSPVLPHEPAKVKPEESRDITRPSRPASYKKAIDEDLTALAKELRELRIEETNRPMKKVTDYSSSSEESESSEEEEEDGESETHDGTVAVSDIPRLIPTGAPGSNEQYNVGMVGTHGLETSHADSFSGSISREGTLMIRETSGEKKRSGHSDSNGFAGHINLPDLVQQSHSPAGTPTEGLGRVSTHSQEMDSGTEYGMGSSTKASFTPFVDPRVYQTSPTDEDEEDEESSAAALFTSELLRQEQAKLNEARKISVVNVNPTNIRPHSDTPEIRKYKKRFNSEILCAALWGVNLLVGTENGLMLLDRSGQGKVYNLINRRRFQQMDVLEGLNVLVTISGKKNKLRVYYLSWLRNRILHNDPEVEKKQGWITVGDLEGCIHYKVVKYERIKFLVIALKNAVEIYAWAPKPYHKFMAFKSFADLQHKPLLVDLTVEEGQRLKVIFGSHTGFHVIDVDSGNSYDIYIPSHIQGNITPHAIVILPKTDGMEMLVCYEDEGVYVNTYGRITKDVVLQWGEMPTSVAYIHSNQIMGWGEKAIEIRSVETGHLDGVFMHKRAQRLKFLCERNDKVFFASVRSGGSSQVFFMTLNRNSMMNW
T4 sequence (O00238 14-502): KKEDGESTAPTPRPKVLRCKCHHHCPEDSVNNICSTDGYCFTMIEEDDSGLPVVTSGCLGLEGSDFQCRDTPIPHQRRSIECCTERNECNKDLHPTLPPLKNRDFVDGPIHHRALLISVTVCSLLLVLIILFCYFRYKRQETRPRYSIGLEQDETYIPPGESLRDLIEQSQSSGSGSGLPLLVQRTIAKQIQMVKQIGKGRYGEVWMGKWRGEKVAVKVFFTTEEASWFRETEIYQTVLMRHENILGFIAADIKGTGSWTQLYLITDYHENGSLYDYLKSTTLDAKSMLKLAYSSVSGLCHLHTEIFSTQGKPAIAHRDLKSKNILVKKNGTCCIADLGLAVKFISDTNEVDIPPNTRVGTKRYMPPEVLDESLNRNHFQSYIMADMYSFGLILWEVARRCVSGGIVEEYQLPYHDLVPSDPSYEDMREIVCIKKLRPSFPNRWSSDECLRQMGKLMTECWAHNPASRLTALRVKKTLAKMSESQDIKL
Chain of MEK2 (P36507 whole entry): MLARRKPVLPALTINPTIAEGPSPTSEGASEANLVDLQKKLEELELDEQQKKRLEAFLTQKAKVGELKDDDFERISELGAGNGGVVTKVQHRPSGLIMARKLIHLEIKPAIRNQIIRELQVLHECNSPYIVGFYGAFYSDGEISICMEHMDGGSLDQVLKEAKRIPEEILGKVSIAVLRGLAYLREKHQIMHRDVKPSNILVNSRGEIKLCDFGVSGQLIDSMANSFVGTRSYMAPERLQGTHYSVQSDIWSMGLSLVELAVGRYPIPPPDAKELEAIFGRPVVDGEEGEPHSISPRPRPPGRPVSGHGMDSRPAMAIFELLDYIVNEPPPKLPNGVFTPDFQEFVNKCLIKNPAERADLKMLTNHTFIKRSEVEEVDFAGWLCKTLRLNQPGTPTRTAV
Chain of CAMK1a (Q14012 whole entry): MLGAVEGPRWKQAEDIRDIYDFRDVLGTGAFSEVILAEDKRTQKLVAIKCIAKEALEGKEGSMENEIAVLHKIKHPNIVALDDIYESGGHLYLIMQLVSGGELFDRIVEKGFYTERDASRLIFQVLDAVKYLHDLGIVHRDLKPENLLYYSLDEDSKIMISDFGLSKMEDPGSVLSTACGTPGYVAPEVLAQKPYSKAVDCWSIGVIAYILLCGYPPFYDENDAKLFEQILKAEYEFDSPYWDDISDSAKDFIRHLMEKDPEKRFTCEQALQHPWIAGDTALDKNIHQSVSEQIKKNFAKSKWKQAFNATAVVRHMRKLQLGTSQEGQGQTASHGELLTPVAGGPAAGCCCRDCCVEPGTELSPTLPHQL
Chain of SRPK1 (Q96SB4 whole entry): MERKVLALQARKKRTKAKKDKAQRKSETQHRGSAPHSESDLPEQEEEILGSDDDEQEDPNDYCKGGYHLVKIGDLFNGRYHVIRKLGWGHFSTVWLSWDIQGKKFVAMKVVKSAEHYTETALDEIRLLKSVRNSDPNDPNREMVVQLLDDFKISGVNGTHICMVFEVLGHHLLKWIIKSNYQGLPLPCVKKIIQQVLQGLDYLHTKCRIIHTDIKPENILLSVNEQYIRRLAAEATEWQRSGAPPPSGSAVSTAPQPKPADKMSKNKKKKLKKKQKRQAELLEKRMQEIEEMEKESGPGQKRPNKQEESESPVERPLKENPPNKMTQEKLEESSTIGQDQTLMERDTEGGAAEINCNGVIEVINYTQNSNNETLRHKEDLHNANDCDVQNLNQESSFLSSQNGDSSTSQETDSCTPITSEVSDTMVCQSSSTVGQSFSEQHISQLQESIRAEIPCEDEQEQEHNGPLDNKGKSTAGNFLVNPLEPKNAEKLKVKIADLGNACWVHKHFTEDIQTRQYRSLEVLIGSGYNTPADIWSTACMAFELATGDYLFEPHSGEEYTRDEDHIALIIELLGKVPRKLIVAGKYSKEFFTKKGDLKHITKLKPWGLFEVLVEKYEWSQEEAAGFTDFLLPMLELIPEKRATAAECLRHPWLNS
Chain of CSK (P41240 whole entry): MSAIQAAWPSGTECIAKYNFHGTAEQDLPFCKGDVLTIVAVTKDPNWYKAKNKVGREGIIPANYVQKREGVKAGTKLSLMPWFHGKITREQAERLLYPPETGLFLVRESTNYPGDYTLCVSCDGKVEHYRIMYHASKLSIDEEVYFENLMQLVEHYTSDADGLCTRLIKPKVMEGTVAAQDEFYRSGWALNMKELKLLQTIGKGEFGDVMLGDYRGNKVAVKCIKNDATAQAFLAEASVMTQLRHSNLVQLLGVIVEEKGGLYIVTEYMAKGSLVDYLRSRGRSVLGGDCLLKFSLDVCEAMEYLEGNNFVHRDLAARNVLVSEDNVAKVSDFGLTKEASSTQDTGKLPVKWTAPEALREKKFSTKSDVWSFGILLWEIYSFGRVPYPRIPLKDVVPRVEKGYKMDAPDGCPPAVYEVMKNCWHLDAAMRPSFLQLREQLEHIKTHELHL

As to `COc1cc(-c2cncc(-c3ccc(N4C[C@@H](C)N(C)[C@@H](C)C4)cc3)c2C)cc(F)c1C(N)=O` [Compound 26c, 2-Fluoro-6-methoxy-4-(4-methyl-5-(4-((3R,5S)-3,4,5-trimethylpiperazin-1-yl)phenyl)pyridin-3-yl)benzamide], the remaining activity at 1 µM in data set [1] is 88.3%; in [2] it was 100%; in data set [3], 104%; in [4], 109%; in data set [5] it was 96%; in [7] (read-out: % enzyme activity, 1 μM), 4.85%. Moreover, the remaining activity at 1 µM in [8] came to 94%; in [9], 104%; in [10], 93.3%; in data set [13], 30.2%; in data set [15] it was 97.5%. For the same compound, the “% enzyme activity” value in data set [6] was determined as 97.60%; in data set [7], 3.92%; in data set [9] it was 100.11%; in [11], 100.72%; in [13], 30.06%; in data set [14] it was 81.70%. Moreover, the “% enzyme activity” value in [16] was determined as 103.03%; in [17], 99.07%. Also, the amount remaining at 1 h, 1 μM in [12] was 47.5%.

For `COc1cc(-c2cncc(-c3ccc(N4CCN(C)CC4)cc3)c2C)cc(F)c1C(N)=O` [Compound 26a, 2-Fluoro-6-methoxy-4-(4-methyl-5-(4-(4-methylpiperazin-1-yl)phenyl)pyridin-3-yl)benzamide], the remaining activity at 1 µM in [1] was determined as 103%; in data set [2], 100%; in data set [3], 99.5%; in data set [4] it was 105%; in data set [5] it was 94.4%; in data set [8] it was 87.1%. The remaining activity at 1 µM in data set [9] was determined as 89.1%; in data set [10], 86.8%; in data set [13], 18.2%; in [15], 94.9%. In addition, the “% enzyme activity” value was 100.43% in data set [6]; -0.77% and -2.62% in data set [7]; 88.40% in data set [9]; 102.04% in data set [11]; 17.03% in [13]; 105.40% in data set [14]. Further, the “% enzyme activity” value is 91.66% in data set [16] and 99.53% in data set [17]. Moreover, the share remaining at 1 h, 1 μM in [12] stood at 78%.
